Measurements as given in patent publication US12479844B2, “Ion channel modulators” (Praxis Precision Medicines, Inc., priority 2018, dated 2025).

What follows are compounds tested against T1, human NaV1.6 (hNaV1.6) (Homo sapiens, UniProt Q9UQD0) (assay: Modulation of late sodium current (INaL), PatchXpress high throughput electrophysiology). Conditions: HEK293, HEK-293 cells expressing recombinant human NaV1.6, late current evoked by 300 nM ATX-II, read-out: NaV 1.6 Assay Data (percent inhibition of INaL at hNaV1.6).
T1 construct: expressed in transfected cells; host or cells: HEK-293
T1 sequence (Q9UQD0 whole entry): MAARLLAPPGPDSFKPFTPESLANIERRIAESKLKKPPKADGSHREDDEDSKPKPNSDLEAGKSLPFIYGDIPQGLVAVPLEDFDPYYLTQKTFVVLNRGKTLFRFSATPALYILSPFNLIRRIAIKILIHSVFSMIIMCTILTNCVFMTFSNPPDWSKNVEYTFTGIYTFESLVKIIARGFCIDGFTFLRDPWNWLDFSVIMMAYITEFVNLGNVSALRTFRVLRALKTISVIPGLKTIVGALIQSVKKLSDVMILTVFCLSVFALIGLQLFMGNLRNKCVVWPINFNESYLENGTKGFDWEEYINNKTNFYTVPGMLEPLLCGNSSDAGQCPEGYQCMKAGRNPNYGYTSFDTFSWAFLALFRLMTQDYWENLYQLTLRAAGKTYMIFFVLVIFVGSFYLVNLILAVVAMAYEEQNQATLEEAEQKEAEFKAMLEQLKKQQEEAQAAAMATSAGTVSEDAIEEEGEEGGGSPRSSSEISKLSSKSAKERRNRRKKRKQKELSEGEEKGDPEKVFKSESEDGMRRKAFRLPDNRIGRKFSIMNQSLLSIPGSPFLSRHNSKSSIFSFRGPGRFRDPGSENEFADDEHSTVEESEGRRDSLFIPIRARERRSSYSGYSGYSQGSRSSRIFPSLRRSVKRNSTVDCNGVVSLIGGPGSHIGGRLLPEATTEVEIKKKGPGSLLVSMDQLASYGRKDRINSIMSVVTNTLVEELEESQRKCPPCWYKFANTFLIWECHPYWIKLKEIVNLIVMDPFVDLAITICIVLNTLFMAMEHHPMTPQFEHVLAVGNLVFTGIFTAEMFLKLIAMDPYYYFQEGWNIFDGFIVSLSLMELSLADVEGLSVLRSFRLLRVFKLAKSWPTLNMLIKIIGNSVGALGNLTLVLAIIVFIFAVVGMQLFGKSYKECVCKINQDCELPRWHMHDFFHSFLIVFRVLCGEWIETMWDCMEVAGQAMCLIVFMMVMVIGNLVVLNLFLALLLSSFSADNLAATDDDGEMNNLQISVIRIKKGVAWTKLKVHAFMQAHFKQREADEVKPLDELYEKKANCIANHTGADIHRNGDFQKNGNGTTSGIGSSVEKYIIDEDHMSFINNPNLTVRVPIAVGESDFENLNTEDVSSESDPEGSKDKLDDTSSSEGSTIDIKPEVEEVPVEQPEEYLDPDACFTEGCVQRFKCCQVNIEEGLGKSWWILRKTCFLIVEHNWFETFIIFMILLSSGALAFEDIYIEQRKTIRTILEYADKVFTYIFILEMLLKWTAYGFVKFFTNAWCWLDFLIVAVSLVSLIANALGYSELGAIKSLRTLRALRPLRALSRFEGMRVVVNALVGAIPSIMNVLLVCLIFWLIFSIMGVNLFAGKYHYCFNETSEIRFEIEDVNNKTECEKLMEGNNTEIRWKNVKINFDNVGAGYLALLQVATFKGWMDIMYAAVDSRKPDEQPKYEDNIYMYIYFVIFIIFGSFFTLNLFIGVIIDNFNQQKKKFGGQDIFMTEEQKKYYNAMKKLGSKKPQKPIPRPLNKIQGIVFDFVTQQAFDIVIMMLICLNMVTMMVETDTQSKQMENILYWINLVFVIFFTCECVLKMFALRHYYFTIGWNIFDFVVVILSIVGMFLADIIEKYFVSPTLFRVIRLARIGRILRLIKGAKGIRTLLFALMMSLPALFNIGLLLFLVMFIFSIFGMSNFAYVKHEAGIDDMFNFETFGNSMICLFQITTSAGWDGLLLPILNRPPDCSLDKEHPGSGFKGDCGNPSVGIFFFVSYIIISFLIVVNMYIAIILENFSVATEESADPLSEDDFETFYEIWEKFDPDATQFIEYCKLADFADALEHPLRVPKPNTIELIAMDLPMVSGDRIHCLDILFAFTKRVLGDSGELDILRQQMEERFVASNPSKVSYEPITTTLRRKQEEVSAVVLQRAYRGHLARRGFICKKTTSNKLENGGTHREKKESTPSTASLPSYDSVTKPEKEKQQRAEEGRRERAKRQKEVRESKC
Assay type: cell-based
Protocol: Functional characterization of exemplary compounds to modulate INaL expressed by the NaV1.6 voltage-gated sodium channel was accomplished using the PatchXpress™ high throughput electrophysiology platform (Molecular Devices, Sunnyvale, CA). HEK-293 cells expressing recombinant, human NaV1.6 (hNaV1.6) were grown in DMEM/high-glucose Dulbecco's modified, 10% FBS, 2 mM sodium pyruvate, 10 mM HEPES and 400 μg/mL G418. Cells were grown to 50%-80% confluency prior to harvesting. Trypsinized cells were washed, allowed to recover for 1 hour and then resuspended in extracellular recording solution at a concentration of 1×10^6 cells/ml. The onboard liquid handling facility of the PatchXpress was used for dispensing cells and applying test compounds. NaV late currents were evoked by the application of 300 nM ATX-II. INaL was evoked by depolarizing pulses to 0 mV for 200 ms from a non-inactivating holding potential (e.g., −120 mV) at a frequency of 0.1 Hz. INaL amplitude and stability were determined by analyzing the mean current amplitude over the final 20 ms of thetest pulse. Following steady state block with exemplary compounds (e.g., as described herein), a Na+ free solution containing an impermeant cation (e.g., Choline or NDMG) was added to confirm the identify of the sodium current. Percent steady-state inhibition of INaL was calculated as: [(INaL_compound)/(INaL_control)]*100, where INaL_compound and INaL_control represent INaL recorded in the presence or absence of compound, respectively.

Row | SMILES | inhibition at 1 µM
1 | Cc1cc(OC(F)(F)F)ccc1-c1cn2c(COCC(C)C)nnc2cn1 [Compound 7, 3-(isobutoxymethyl)-6-(2-methyl-4-(trifluoromethoxy)phenyl)-[1,2,4]triazolo[4,3-a]pyrazine] | 30 to 70%
2 | Cc1cc(OC(F)(F)F)ccc1-c1cn2c(C(F)(F)OC(C)C)nnc2cn1 [Compound 10, 3-(difluoro(isopropoxy)methyl)-6-(2-methyl-4-(trifluoromethoxy)phenyl)-[1,2,4]triazolo[4,3-a]pyrazine] | 30 to 70%
3 | COCc1nnc2cnc(-c3ccc(OC(F)(F)F)cc3C)cn12 [Compound 3, 3-(methoxymethyl)-6-[2-methyl-4-(trifluoromethoxy)phenyl]-[1,2,4]triazolo[4,3-a]pyrazine] | < 30%
4 | COCc1cc(OC(F)(F)F)ccc1-c1cn2c(COC)nnc2cn1 [Compound 17, 3-(methoxymethyl)-6-[2-(methoxymethyl)-4-(trifluoromethoxy)phenyl]-[1,2,4] triazolo[4,3-a]pyrazine] | < 30%
5 | CCOC(F)(F)c1nnc2cnc(-c3ccc(OC(F)(F)F)cc3C)cn12 [Compound 4, 3-[ethoxy(difluoro)methyl]-6-[2-methyl-4-(trifluoromethoxy)phenyl]-[1,2,4]triazolo[4,3-a]pyrazine] | > 70%
6 | Cc1cc(OC(F)(F)F)ccc1-c1cn2c(C(F)(F)OCC3CC3)nnc2cn1 [Compound 18, 3-[cyclopropylmethoxy(difluoro)methyl]-6-[2-methyl-4-(trifluoromethoxy)phenyl]-[1,2,4]triazolo[4,3-a]pyrazine] | > 70%
7 | COCc1nnc2ccc(-c3ccc(OC(F)(F)F)cc3C)nn12 [Compound 8, 3-(methoxymethyl)-6-[2-methyl-4-(trifluoromethoxy)phenyl]-[1,2,4]triazolo[4,3-b]pyridazine] | 30 to 70%
8 | COC(F)(F)c1nnc2cnc(-c3ccc(OC(F)(F)F)c(C)c3)cn12 [Compound 11, 3-(difluoro(methoxy)methyl)-6-(3-methyl-4-(trifluoromethoxy)phenyl)-[1,2,4]triazolo[4,3-a]pyrazine] | < 30%
9 | CCOC(F)(F)c1nnc2cnc(-c3ccc(OC4CC(F)(F)C4)cc3C)cn12 [Compound 38, 6-[4-(3,3-difluorocyclobutoxy)-2-methyl-phenyl]-3-[ethoxy(difluoro)methyl]-[1,2,4]triazolo[4,3-a]pyrazine] | > 70%
10 | CCOCc1nnc2cnc(-c3ccc(OC(F)(F)F)cc3C)cn12 [Compound 5, 3-(ethoxymethyl)-6-[2-methyl-4-(trifluoromethoxy)phenyl]-[1,2,4]triazolo[4,3-a]pyrazine] | 30 to 70%
11 | Cc1cc(OC(F)(F)F)ccc1-c1cn2c(COCC3CC3)nnc2cn1 [Compound 16, 3-(cyclopropylmethoxymethyl)-6-[2-methyl-4-(trifluoromethoxy)phenyl]-[1,2,4]triazolo[4,3-a]pyrazine] | 30 to 70%
12 | Cc1cc(OC(F)(F)F)ccc1-c1cn2c(C(F)(F)OC3CC3)nnc2cn1 [Compound 12, 3-[cyclopropoxy(difluoro)methyl]-6-[2-methyl-4-(trifluoromethoxy)phenyl]-[1,2,4]triazolo[4,3-a]pyrazine] | 30 to 70%
13 | CCOC(F)(F)c1nnc2ccc(-c3ccc(OC(F)(F)F)cc3C)nn12 [Compound 15, 3-[ethoxy(difluoro)methyl]-6-[2-methyl-4-(trifluoromethoxy)phenyl]-[1,2,4]triazolo[4,3-b]pyridazine] | < 30%
14 | CCOC(F)(F)c1nnc2cnc(-c3ccc(OC(F)(F)F)c(C)c3)cn12 [Compound 9, 3-[ethoxy(difluoro)methyl]-6-[3-methyl-4-(trifluoromethoxy)phenyl]-[1,2,4]triazolo[4,3-a]pyrazine] | 30 to 70%
15 | COC(F)(F)c1nnc2cnc(-c3ccc(OC4CC(F)(F)C4)cc3C)cn12 [Compound 39, 6-[4-(3,3-difluorocyclobutoxy)-2-methyl-phenyl]-3-[difluoro(methoxy)methyl]-[1,2,4]triazolo[4,3-a]pyrazine] | 30 to 70%
16 | CCOC(F)(F)c1nnc2cnc(-c3ccc(OC4CC(F)(F)C4)cc3)cn12 [Compound 37, 6-[4-(3,3-difluorocyclobutoxy)phenyl]-3-[ethoxy(difluoro)methyl]-[1,2,4]triazolo[4,3-a]pyrazine] | > 70%

Now from value to compound:

Row | inhibition at 1 µM | SMILES
17 | > 70% | COC(F)(F)c1nnc2cnc(-c3ccc(OC(C)C)cc3)cn12 [Compound 24, 3-(difluoro(methoxy)methyl)-6-(4-isopropoxyphenyl)-[1,2,4]triazolo[4,3-a]pyrazine]
18 | > 70% | COC(F)(F)c1nnc2cnc(-c3ccc(OC(F)(F)F)cc3C3CC3)cn12 [Compound 33, 6-[2-cyclopropyl-4-(trifluoromethoxy)phenyl]-3-[difluoro(methoxy)methyl]-[1,2,4]triazolo[4,3-a]pyrazine]
19 | 30 to 70% | COC(F)(F)c1nnc2cnc(-c3ccc(OC(C)C)cc3C)cn12 [Compound 22, 3-(difluoro(methoxy)methyl)-6-(4-isopropoxy-2-methylphenyl)-[1,2,4]triazolo [4,3-a]pyrazine]
20 | 30 to 70% | CCOC(F)(F)c1nnc2cnc(-c3ccc(O[C@@H](C)C(F)(F)F)cc3C)cn12 (single isomer, unassigned) [Compound 30]
21 | 30 to 70% | COC(F)(F)c1nnc2cnc(-c3ccc(O[C@H](C)C(F)(F)F)cc3C)cn12 (single isomer, unassigned) [Compound 27]
22 | 30 to 70% | COC(F)(F)c1nnc2cnc(-c3ccc(OC(F)(F)F)cc3COC3CC3)cn12 [Compound 35, 6-[2-(cyclopropoxymethyl)-4-(trifluoromethoxy)phenyl]-3-[difluoro(methoxy)methyl]-[1,2,4]triazolo[4,3-a]pyrazine]
23 | 30 to 70% | COC(F)(F)c1nnc2cnc(-c3ccc(O[C@@H](C)C(F)(F)F)cc3C)cn12 (single isomer, unassigned) [Compound 28]
24 | 30 to 70% | COC(F)(F)c1nnc2cnc(-c3ccc(OCC(F)(F)F)cc3C)cn12 [Compound 21, 3-(difluoro(methoxy)methyl)-6-(2-methyl-4-(2,2,2-trifluoroethoxy)phenyl)-[1,2,4]triazolo[4,3-a]pyrazine]
25 | > 70% | CCOC(F)(F)c1nnc2cnc(-c3ccc(O[C@H](C)C(F)(F)F)cc3C)cn12 (single isomer, unassigned) [Compound 29]
26 | 30 to 70% | CCOC(F)(F)c1nnc2cnc(-c3ccc(OC(F)(F)F)cc3COC3CC3)cn12 [Compound 36, 6-[2-(cyclopropoxymethyl)-4-(trifluoromethoxy)phenyl]-3-[ethoxy(difluoro)methyl]-[1,2,4]triazolo[4,3-a]pyrazine]
27 | < 30% | CO[C@H](C)c1cc(OC(F)(F)F)ccc1-c1cn2c(C(F)(F)OC)nnc2cn1 (single isomer, unassigned) [Compound 31]
28 | < 30% | CO[C@@H](C)c1cc(OC(F)(F)F)ccc1-c1cn2c(C(F)(F)OC)nnc2cn1 (single isomer, unassigned) [Compound 32]
29 | > 70% | CCOC(F)(F)c1nnc2cnc(-c3ccc(OC(C)C)cc3)cn12 [Compound 25, 3-(ethoxydifluoromethyl)-6-(4-isopropoxyphenyl)-[1,2,4]triazolo[4,3-a]pyrazine]
